# Like-named read-outs stand apart in the source and are kept apart here.
# Columns and labels:
# [1] = test system: cowpox virus (CV); assay: microbe, parasite or virus in culture; format: cell-based
# [2] = test system: HFF cells
# [3] = test system: vaccinia virus (VV); assay: microbe, parasite or virus in culture; format: cell-based
# [4] = in vitro; conditions: human
# [5] = ref Barditch-Crovo et al., 1997; cited from earlier work
# [6] = test system: Monkeypox; conditions: read-out: EC50 Monkeypox; cited from earlier work
# [7] = test system: Variola; conditions: read-out: EC50 Variola; cited from earlier work
# [8] = test system: cowpox virus (CV); conditions: read-out: EC50 Cowpox; cited from earlier work
# [9] = test system: vaccinia virus (VV); conditions: read-out: EC50 Vaccinia; Table 4; ref Kern et al. (2002); cited from earlier work
# [10] = test system: vaccinia, cowpox, monkeypox, and variola viruses; format: cell-based
# [11] = test system: cowpox virus; conditions: mouse, in vivo, po; cited from earlier work
# [12] = test system: cowpox virus; parameters: species or system mice; conditions: mouse, in vivo
# [13] = test system: vaccinia virus; format: in vivo, mice
# [14] = Cowpox virus, HFF, read-out: EC50 CV
# [15] = Orthopoxvirus vaccinia, HFF, read-out: EC50 VV
# [16] = Cowpox virus, HFF, read-out: Cowpox virus EC50
# [17] = Orthopoxvirus vaccinia, HFF, read-out: Vaccinia virus EC50
compound,measurement,setting,value
"CCOC(=O)C(C)NP1(=O)COC(Cn2ccc(N)nc2=O)CO1 (single isomer, unassigned; isomer i) [Ethyl alaninyl cyclic HPMPC—isomer I, Ethyl alaninyl cyclic HPMPC]",EC50,[1]; read-out: Cowpox virus EC50,27 ± 6.5 µM
same,CC50,[2],> 276 µM
same,EC50,[3]; read-out: Vaccinia virus EC50,15 ± 13 µM
"CCOC(=O)C(C)NP1(=O)COC(Cn2ccc(N)nc2=O)CO1 (single isomer, unassigned; isomer ii) [Ethyl alaninyl cyclic HPMPC—isomer II, Ethyl alaninyl cyclic HPMPC]",EC50,[1]; read-out: Cowpox virus EC50,26 ± 3.5 µM
same,CC50,[2],> 278 µM
same,EC50,[3]; read-out: Vaccinia virus EC50,15 ± 11 µM
Nc1nc2c(ncn2COCCO)c(=O)[nH]1 [Acyclovir],EC50,[1]; [14],> 300 µM
same,EC50,[3]; [15],> 300 µM
"CC(C)(C)C(=O)OCOP(=O)(COCCn1cnc2c(N)ncnc21)OCOC(=O)C(C)(C)C [Adefovir dipivoxil, bis(pivaloyloxymethyl)PMEA]",EC50,[1]; [16],13 ± 8.8 µM
same,EC50,[1]; [14],13 µM
same,CC50,[4],117 ± 27 µM
same,oral bioavailability,[5],good oral bioavailability
same,EC50,[3]; [15],5.1 µM
same,EC50,[3]; [17],5.1 ± 0.7 µM
"Nc1ncnc2c1ncn2CCOCP(=O)(O)O [Adefovir, 9-(2-phosphonylmethoxyethyl)adenine]",EC50,[1]; [16],> 366 µM
same,EC50,[1]; [14],> 300 µM
same,CC50,[4],> 366 µM
same,EC50,[3]; [15],> 300 µM
same,EC50,[3]; [17],> 366 µM
Nc1nc(N)c2ncn([C@H]3CO[C@@H](CO)O3)c2n1 [Amdoxovir],EC50,[1]; [14],> 300 µM
same,EC50,[3]; [15],> 300 µM
CCCCOC(=O)C(C)NP(=O)(COCCn1cnc2c(NC3CC3)nc(N)nc21)NC(C)C(=O)OCCCC (stereo not shown) [Bis(butylalaninyl) PME(N^6-cyclopropyl)DAP],EC50,[1]; read-out: Cowpox virus EC50,0.26 ± 0.2 µM
same,CC50,[2],49 ± 33 µM
same,EC50,[3]; read-out: Vaccinia virus EC50,0.08 ± 0.01 µM
CCCCOC(=O)[C@H](C)NP(=O)(COCCn1cnc2c(N)ncnc21)N[C@@H](C)C(=O)OCCCC [Bis(butylalaninyl)PMEA],EC50,[1]; read-out: Cowpox virus EC50,10 ± 8.2 µM
same,CC50,[2],100 ± 27 µM
same,EC50,[3]; read-out: Vaccinia virus EC50,4.4 ± 0.2 µM
"CC(C)OC(=O)OCOP(=O)(CO[C@H](C)Cn1cnc2c(N)ncnc21)OCOC(=O)OC(C)C [Bis(isopropoxycarbonyloxymethyl)PMPA, bis(isopropoxycarbonyloxymethyl)PMPA]",EC50,[1]; [16],> 157 µM
same,CC50,[4],> 157 µM
same,EC50,[3]; [17],> 157 µM
O=c1[nH]c(=O)n([C@H]2C[C@H](O)[C@@H](CO)O2)cc1/C=C/Br [Brivudin],EC50,[1]; [14],66 µM
same,EC50,[3]; [15],> 100 µM
"Nc1ccn(C[C@@H](CO)OCP(=O)(O)O)c(=O)n1 [Cidofovir, (S)-1(3-hydroxy-2-phosphonylmethoxypropyl) cytosine]",EC50,[6],4.6 µM
same,EC50,[1]; [16],43 ± 2.5 µM
same,EC50,[1]; [14],43 µM
same,CC50,[4],278 ± 9.2 µM
same,EC50,[7],27.3 µM
same,EC50,[8],44.7 ± 6.3 µM
same,EC50,[9],46.2 ± 11.9 µM
same,EC50,[3]; [15],33 µM
same,EC50,[3]; [17],33 ± 9.1 µM
Cc1cn([C@H]2O[C@@H](CO)[C@H](O)[C@H]2F)c(=O)[nH]c1=O [Clevudine],EC50,[1]; [14],> 300 µM
same,EC50,[3]; [15],> 300 µM
Nc1nc(=O)n([C@@H]2CS[C@H](CO)O2)cc1F [Coviracil],EC50,[1]; [14],> 81 µM
same,EC50,[3]; [15],> 81 µM
"Nc1ccn(C[C@H]2COP(=O)(O)CO2)c(=O)n1 [Cyclic HPMPC (cHPMPC), Cyclic HPMPC]",EC50,[6],63.6 µM
same,EC50,[1]; [16],48 ± 8 µM
same,CC50,[4],> 302 µM
same,EC50,[7],45.8 µM
same,EC50,[8],48.3 ± 8 µM
same,EC50,[9],50.6 ± 13.1 µM
same,EC50,[3]; [17],38 ± 11 µM
CCOCn1c(Cc2ccccc2)c(C(C)C)c(=O)[nH]c1=O [Emivirine],EC50,[1]; [14],> 300 µM
same,EC50,[3]; [15],> 300 µM
C=C1[C@H](CO)[C@@H](O)C[C@@H]1n1cnc2c(=O)[nH]c(N)nc21 [Entecavir],EC50,[1]; [14],85 µM
same,EC50,[3]; [15],53 µM
CC(=O)OCC(CCn1cnc2cnc(N)nc21)COC(C)=O [Famciclovir],EC50,[1]; [14],> 300 µM
same,EC50,[3]; [15],> 300 µM
O=c1[nH]c(=O)n([C@@H]2O[C@H](CO)[C@@H](O)[C@@H]2F)cc1I [Fialuridine],EC50,[1]; [14],0.24 µM
same,EC50,[3]; [15],1.5 µM
O=C(O)P(=O)(O)O [Foscarnet],EC50,[1]; [14],> 300 µM
same,EC50,[3]; [15],> 300 µM
Nc1nc(O)c2ncn(COC(CO)CO)c2n1 [Ganciclovir],EC50,[1]; [14],> 300 µM
same,EC50,[3]; [15],> 300 µM
Nc1ccn([C@@H]2O[C@H](CO)[C@@H](O)C2(F)F)c(=O)n1 [Gemcitabine],EC50,[1]; [14],0.017 µM
same,toxicity in vitro (in words),[2],very toxic
same,selectivity index,[3],> 200
same,EC50,[3]; [15],0.013 µM
"CCCCCCCCCCCCCCCCOCCCOP(=O)(O)CO[C@H](CO)Cn1ccc(N)nc1=O [HDP-CDV, 3-hexadecyloxy-l-propanol CDV]",EC50,[6],0.07 µM
same,active at levels -fold less than the parent molecules,[10],50- to 200 fold
same,activity in cowpox virus-infected mice,[11],active
same,activity in cowpox virus infection of mice,[12]; po,active orally
same,activity in vaccinia virus infection of mice,"[13]; given orally, Kern, unpublished results",active orally
same,EC50,[7],0.1 µM
same,EC50,[8],0.6 ± 0.3 µM
same,EC50,[9],0.8 ± 0.4 µM
"CCCCCCCCCCCCCCCCOCCCOP1(=O)COC(Cn2ccc(N)nc2=O)CO1 (stereo not drawn) [HDP-cCDV, 3-hexadecyloxy-l-propanol cyclic CDV]",EC50,[6],1.8 µM
same,active at levels -fold less than the parent molecules,[10],50- to 200 fold
same,EC50,[7],0.9 µM
same,EC50,[8],2.1 ± 1.9 µM
same,EC50,[9],3.8 ± 1.5 µM
"Nc1ncnc2c1ncn2C[C@@H](CO)OCP(=O)(O)O [HPMPA, (S)-9-(3-hydroxy-2-phosphonylmethoxypropyl)adenine]",EC50,[1]; read-out: Cowpox virus EC50,5 ± 4.7 µM
same,CC50,[2],269 ± 21 µM
same,fold more active than CDV,[3],about 10 fold
same,EC50,[3]; read-out: Vaccinia virus EC50,3.5 ± 2.8 µM
O=c1[nH]c(=O)n([C@H]2C[C@H](O)[C@@H](CO)O2)cc1I [Idoxuridine],EC50,[1]; [14],2 µM
same,EC50,[3]; [15],6 µM
CC(C)OC(=O)[C@H](C)N[P@](=O)(CO[C@H](C)Cn1cnc2c(N)ncnc21)Oc1ccccc1 [Isopropyl alaninylphenyl PMPA],EC50,[1]; [16],98.9 µM
same,CC50,[4],> 143 µM
same,EC50,[3]; [17],23.5 µM
Nc1ccn([C@@H]2CS[C@H](CO)O2)c(=O)n1 [Lamivudine],EC50,[1]; [14],> 400 µM
same,EC50,[3]; [15],> 400 µM
Nc1nc(=O)c2ncn([C@@H]3C[C@H](CO)[C@H]3CO)c2[nH]1 [Lobucavir],EC50,[1]; [14],66 µM
same,EC50,[3]; [15],27 µM
Nc1cccc(CN2C(=O)N(Cc3cccc(N)c3)[C@H](Cc3ccccc3)[C@H](O)[C@@H](O)[C@H]2Cc2ccccc2)c1 [Mozenavir],EC50,[1]; [14],> 100 µM
same,EC50,[3]; [15],> 100 µM
Nc1nc(NC2CC2)c2ncn(CCOCP(=O)(O)O)c2n1 [PME(N^6-cyclopropyl)DAP],EC50,[1]; read-out: Cowpox virus EC50,28 ± 13 µM
same,CC50,[2],> 263 µM
same,EC50,[3]; read-out: Vaccinia virus EC50,23 ± 6.9 µM
Nc1nc(N)c2ncn(CCOCP(=O)(O)O)c2n1 [PMEDAP],EC50,[1]; [16],> 347 µM
same,CC50,[4],> 339 µM
same,EC50,[3]; [17],204 ± 15 µM
"Nc1nc2c(ncn2CCOCP(=O)(O)O)c(=O)[nH]1 [PMEG, 2-phosphonylmethoxyethyl guanine]",EC50,[1]; read-out: Cowpox virus EC50,11.4 ± 1.3 µM
same,CC50,[2],88 µM
same,EC50,[3]; read-out: Vaccinia virus EC50,4 ± 0.7 µM
"C[C@H](Cn1cnc2c(N)ncnc21)OCP(=O)(O)O [PMPA, (R)-9-(2-phosphonylmethoxypropyl)adenine]",EC50,[1]; [16],> 300 µM
same,CC50,[4],> 300 µM
same,EC50,[3]; [17],> 300 µM
Nc1nc2c(ncn2CCC(CO)CO)c(=O)[nH]1 [Penciclovir],EC50,[1]; [14],> 300 µM
same,EC50,[3]; [15],> 300 µM
"C[C@H](NP1(=O)CO[C@@H](Cn2ccc(N)nc2=O)CO1)C(=O)OCCc1ccccc1 (stereo partly shown) [Phenethyl alaninyl cyclic HPMPC—mixture, Phenethyl alaninyl cyclic HPMPC]",EC50,[1]; read-out: Cowpox virus EC50,6.8 ± 1.8 µM
same,CC50,[2],207 ± 18 µM
same,EC50,[3]; read-out: Vaccinia virus EC50,7.1 ± 0.3 µM
NC(=O)c1ncn([C@@H]2O[C@H](CO)[C@@H](O)[C@H]2O)n1 [Ribavirin],EC50,[1]; [14],> 400 µM
same,EC50,[3]; [15],280 µM
O=c1[nH]c(=O)n([C@@H]2O[C@H](CO)[C@@H](O)[C@@H]2O)cc1/C=C/Br [Sorivudine],EC50,[1]; [14],> 100 µM
same,EC50,[3]; [15],> 100 µM
Nc1ncnc2c1ncn2[C@@H]1O[C@H](CO)[C@@H](O)[C@@H]1O [Vidarabine],activity in murine model of cowpox virus infection,[12],not active
same,activity in murine model of vaccinia virus infection,[13]; data not presented,not active
CC(C)OC(=O)OCOP(=O)(CO[C@H](C)Cn1cnc2c(N)ncnc21)OCOC(=O)OC(C)C [Viread],EC50,[1]; [14],> 300 µM
same,EC50,[3]; [15],> 300 µM
Butyl salicyl cyclic HPMPC,EC50,[1]; read-out: Cowpox virus EC50,34 ± 4.2 µM
same,CC50,[2],> 213 µM
same,EC50,[3]; read-out: Vaccinia virus EC50,32 ± 13 µM
